“Also recorded” adds a separate entry of the source.
How the values were obtained:
[1] = system: alpha-adrenergic receptor; assay: Inhibition of epinephrine-induced pressor response (arterial blood pressure) in pentobarbital anesthetized rats; type: in vivo, Sprague-Dawley rats; settings: for estimated pharmacologic half-life on alpha-adrenergic receptor antagonism: epinephrine 1.0 ug/kg iv challenge, pentobarbital anesthetized rats; for alpha-adrenergic antagonism in vivo: inhibition of the pressor effect of epinephrine challenge; for duration of action relative to that of phentolamine: 0.25 mg/kg iv each, four rats per treatment, alpha-adrenergic antagonism / duration of vasodilation (FIG. 1)
Description: (§1) Eight male normotensive Sprague-Dawley rats weighing between 350 to 380 grams were used in these studies. Animals were fed and watered ad libitum in a temperature (22 degrees and humidity (50%) controlled vivarium with a light dark cycle of 12 hours.
Epinephrine, D,L-piperoxan, and phentolamine (Sigma Chemical Company; St. Louis, Mo.) were solubilized in 0.9% saline on the day of the experiment. All doses were calculated on free base weight. The rats were anesthetized with pentobarbital sodium 60 mg/kg i.p. All animals were checked for depth of anesthesia before proceeding further using the corneal reflex and toe pinch response as indicators. The ventral surface of the neck was shaven and a longitudinal incision, approximately 2 cm long, was made on the ventral surface. The trachea was isolated and intubated (PE205; Intramedic, Parsippany, N.J.) . The left internal jugular vein and right common carotid artery were cannulated (PE50; Clay Adams, Becton Dickinson, Parsippany, N.J.). The cannulas were heparinized (Sodium heparin 60 units/ml) and inserted approximately 1.5 cm into the vessels and were secured with 4-0 silk suture. The animal was placed in the supine position, and body temperature was maintained via a heat lamp. A short piece of hypodermic tubing was inserted into the venous and arterial cannulas, and each cannula connected to a three way stopcock via a section of PE50 and 23 gauge Luer stub. The jugular line was used for administration of epinephrine and either piperoxan or phentolamine. In order to directly record arterial blood pressure, the carotid arterial line was connected to an electronic blood pressure transducer (P23db; Gould Electronics, Oxnard, Calif.). The blood pressure transducer was connected to a Gould transducer amplifier and a thermal recorder for the purpose of recording the arterial blood pressure waveform. After a stable blood pressure baseline was obtained, epinephrine was injected intravenously at a dose of 1.0 ug/kg for the purpose of inducing an alpha-adrenergic receptor mediated pressor response. This response was quantified by measurement of the arterial blood pressure waveform. After the epinephrine-induced pressor effect returned to baseline, either phentolamine or piperoxan was administered intravenously at a dose of 0.25 mg/kg. After dosing with piperoxan and phentolamine, epinephrine injections were repeated at 5, 10, 15, 20, 30, 40, 50, and 60 minutes post dosing. Arterial blood pressure was measured continuously during the length of the experiments.
Percent inhibition of the epinephrine-induced pressor effect by both phentolamine and piperoxan was used as a measure of inhibition of the alpha-adrenergic receptor. As stated previously, inhibition of the alpha receptor results in vasodilatation. Percent inhibition was calculated by the following formula: [formula]

erectile dysfunction = settings: cited from earlier work; for duration of action / erections: agents used to treat impotence, causing pain and general discomfort; for priapism or extremely long erections following treatment for erectile dysfunction: men treated for erectile dysfunction, literature
[2] = system: vascular alpha-adrenergic receptors; settings: epinephrine 1.0 ug/kg iv; all rats tested
Description: as §1
Epinephrine, D,L-piperoxan, and phentolamine (Sigma Chemical Company; St. Louis, Mo.) were solubilized in 0.9% saline on the day of the experiment. All doses were calculated on free base weight. The rats were anesthetized with pentobarbital sodium 60 mg/kg i.p. All animals were checked for depth of anesthesia before proceeding further using the corneal reflex and toe pinch response as indicators. The ventral surface of the neck was shaven and a longitudinal incision, approximately 2 cm long, was made on the ventral surface. The trachea was isolated and intubated (PE205; Intramedic, Parsippany, N.J.) . The left internal jugular vein and right common carotid artery were cannulated (PE50; Clay Adams, Becton Dickinson, Parsippany, N.J.). […] This response was quantified by measurement of the arterial blood pressure waveform. […] Arterial blood pressure was measured continuously during the length of the experiments.
Percent inhibition of the epinephrine-induced pressor effect by both phentolamine and piperoxan was used as a measure of inhibition of the alpha-adrenergic receptor. […] Percent inhibition was calculated by the following formula: [formula]

[3] = cited from earlier work
[4] = in water and acid solutions; cited from earlier work

For `Cc1ccc(N(CC2=NCCN2)c2cccc(O)c2)cc1` [phentolamine], the “estimated pharmacologic half-life on alpha-adrenergic receptor antagonism” value ([1]; 0.25 mg/kg iv) is given as “greater than 60 minutes”, the “alpha-adrenergic antagonism in vivo” value ([1]; 0.25 mg/kg iv) is given as “inhibitory to the pressor-induced effect of epinephrine challenge” and the “duration of action / erections” value (erectile dysfunction) is given as “extremely long duration of action, resulting in erections which last several hours”. The “priapism or extremely long erections following treatment for erectile dysfunction” value (erectile dysfunction) was “priapism or extremely long erections”.
For `CC(COc1ccccc1)N(CCCl)Cc1ccccc1` (stereo not shown) [phenoxybenzamine], the “priapism or extremely long erections following treatment for erectile dysfunction” value (erectile dysfunction) is listed as “priapism or extremely long erections”.
In the case of `CNC[C@H](O)c1ccc(O)c(O)c1` [epinephrine], the “arterial blood pressure change” value [2] was “marked increase in arterial blood pressure in all rats tested”.
In the case of `COC(=O)[C@@H]1[C@H]2C[C@H]3c4[nH]c5ccccc5c4CCN3C[C@@H]2CC[C@@H]1O` [yohimbine], the “duration of action / erections” value (erectile dysfunction) is listed as “extremely long duration of action, resulting in erections which last several hours”.
In the case of `O=c1n(CCCN2CCN(c3cccc(Cl)c3)CC2)nc2ccccn12` [trazodone], the “priapism or extremely long erections following treatment for erectile dysfunction” value (erectile dysfunction) is given as “priapism or extremely long erections”.
In the case of `COc1ccc(Cc2nccc3cc(OC)c(OC)cc23)cc1OC` [papaverine], the “priapism or extremely long erections following treatment for erectile dysfunction” value (erectile dysfunction) is given as “priapism or extremely long erections”.
With `c1ccc2c(c1)OCC(CN1CCCCC1)O2` (racemic) [piperoxan] the “duration of action relative to that of phentolamine” value [1] was “approximately one-half”, the “duration of action relative to that of phentolamine” value ([1]; listed as Piperoxan) was “approximately half” and the “biological half-life / duration of action compared with phentolamine” value ([1]; 0.25 mg/kg iv, FIG. 1) was “much shorter biological half-life; also recorded: shorter duration of action than phentolamine”. For the same compound, the “estimated pharmacologic half-life on alpha-adrenergic receptor antagonism” value ([1]; 0.25 mg/kg iv) was “approximately 30 minutes”, the “alpha-adrenergic antagonism in vivo” value ([1]; 0.25 mg/kg iv) was “inhibitory to the pressor-induced effect of epinephrine challenge; also recorded: alpha-adrenergic antagonist in vivo” and the “storage stability of aqueous solution” value ([3]; aqueous solution at pH 5.0, room temperature) was “many months of storage at room temperature”. For the same compound, the “stability of aqueous solution to autoclaving” value ([3]; aqueous solution at pH 5.0) was “stable to autoclaving”, the hygroscopicity of crystals ([3]; crystals) was “not hygroscopic” and the stability of crystals ([3]; crystals, light, air, normal storage temperatures) was “stable to light, air, and normal storage temperatures”. For the same compound, the solubility [4] was “freely soluble”.

From patent US5583144A, “Methods for treating erectile impotence” (priority 1995, dated 1996)
